Assay results reported in ChEMBL document CHEMBL1201862, “PubChem BioAssay data set” (2004).
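Cultured in 96-well plates, cells were exposed to test compound for 48 hours across five concentrations. GI50 is the concentration that inhibits growth by half.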 The source made the active and inactive calls. No stated cut-off is given here; in the data, active = GI50 up to about 1.1 µM and inactive = higher.

Tests used:
Test in all cases: inhibition of tumour cell growth, NCI panel, 48 h
786-0 = test system: 786-0
A498 = test system: A498
A549 = test system: A549
ACHN = test system: ACHN
CAKI-1 = test system: CAKI-1
CCRF-CEM = test system: CCRF-CEM
COLO 205 = test system: COLO 205
DU-145 = test system: DU-145
EKVX = test system: EKVX
HCC 2998 = test system: HCC 2998
HCT-116 = test system: HCT-116
HCT-15 = test system: HCT-15
HL-60 = test system: HL-60
HOP-62 = test system: HOP-62
HOP-92 = test system: HOP-92
HT-29 = test system: HT-29
Hs-578T = test system: Hs-578T
IGROV-1 = test system: IGROV-1
K562 = test system: K562
KM12 = test system: KM12
LOX IMVI = test system: LOX IMVI
M14 = test system: M14
MCF7 = test system: MCF7
MDA-MB-231 = test system: MDA-MB-231
MDA-MB-435 = test system: MDA-MB-435
MDA-N = test system: MDA-N
MOLT-4 = test system: MOLT-4
Malme-3M = test system: Malme-3M
NCI-H226 = test system: NCI-H226
NCI-H23 = test system: NCI-H23
NCI-H460 = test system: NCI-H460
NCI-H522 = test system: NCI-H522
NCI/ADR-RES = test system: NCI/ADR-RES
OVCAR-3 = test system: OVCAR-3
OVCAR-4 = test system: OVCAR-4
OVCAR-5 = test system: OVCAR-5
PC-3 = test system: PC-3
RPMI-8226 = test system: RPMI-8226
RXF 393 = test system: RXF 393
SF-268 = test system: SF-268
SF-295 = test system: SF-295
SF-539 = test system: SF-539
SK-MEL-28 = test system: SK-MEL-28
SK-MEL-2 = test system: SK-MEL-2
SK-MEL-5 = test system: SK-MEL-5
SK-OV-3 = test system: SK-OV-3
SN12C = test system: SN12C
SNB-19 = test system: SNB-19
SNB-75 = test system: SNB-75
SR = test system: SR
SW-620 = test system: SW-620
T47D = test system: T47D
TK-10 = test system: TK-10
U-251 = test system: U-251
UACC-62 = test system: UACC-62
UO-31 = test system: UO-31
OVCAR-8 = test system: OVCAR-8
UACC-257 = test system: UACC-257
BT-549 = test system: BT-549

CNC(=O)N1CN(c2ccccc2)C2(CCN(CCCC3(c4ccc(F)cc4)OCCO3)CC2)C1=O
GI50 (786-0): > 100 µM (inactive)
GI50 (A498): > 100 µM (inactive)
GI50 (A549): > 100 µM (inactive)
GI50 (ACHN): > 100 µM (inactive)
GI50 (CAKI-1): > 100 µM (inactive)
GI50 (CCRF-CEM): > 100 µM (inactive)
GI50 (COLO 205): > 100 µM (inactive)
GI50 (DU-145): > 100 µM (inactive)
GI50 (EKVX): > 100 µM (inactive)
GI50 (HCC 2998): > 100 µM (inactive)
GI50 (HCT-116): > 100 µM (inactive)
GI50 (HCT-15): > 100 µM
GI50 (HL-60): > 100 µM (inactive)
GI50 (HOP-62): > 100 µM (inactive)
GI50 (HOP-92): > 100 µM (inactive)
GI50 (HT-29): > 100 µM (inactive)
GI50 (Hs-578T): > 100 µM (inactive)
GI50 (IGROV-1): > 100 µM (inactive)
GI50 (K562): > 100 µM (inactive)
GI50 (KM12): > 100 µM (inactive)
GI50 (LOX IMVI): > 100 µM (inactive)
GI50 (M14): > 100 µM (inactive)
GI50 (MCF7): > 100 µM (inactive)
GI50 (MDA-MB-231): > 100 µM (inactive)
GI50 (MDA-MB-435): > 100 µM (inactive)
GI50 (MDA-N): > 100 µM (inactive)
GI50 (MOLT-4): > 100 µM (inactive)
GI50 (Malme-3M): > 100 µM (inactive)
GI50 (NCI-H226): > 100 µM (inactive)
GI50 (NCI-H23): > 100 µM (inactive)
GI50 (NCI-H460): > 100 µM (inactive)
GI50 (NCI-H522): > 100 µM (inactive)
GI50 (NCI/ADR-RES): > 100 µM (inactive)
GI50 (OVCAR-3): > 100 µM (inactive)
GI50 (OVCAR-4): > 100 µM (inactive)
GI50 (OVCAR-5): > 100 µM (inactive)
GI50 (PC-3): > 100 µM (inactive)
GI50 (RPMI-8226): > 100 µM (inactive)
GI50 (RXF 393): > 100 µM (inactive)
GI50 (SF-268): > 100 µM (inactive)
GI50 (SF-295): > 100 µM (inactive)
GI50 (SF-539): > 100 µM (inactive)
GI50 (SK-MEL-28): > 100 µM (inactive)
GI50 (SK-MEL-2): > 100 µM (inactive)
GI50 (SK-MEL-5): > 100 µM (inactive)
GI50 (SK-OV-3): > 100 µM (inactive)
GI50 (SN12C): > 100 µM (inactive)
GI50 (SNB-19): > 100 µM (inactive)
GI50 (SNB-75): > 100 µM (inactive)
GI50 (SR): > 100 µM (inactive)
GI50 (SW-620): > 100 µM (inactive)
GI50 (T47D): > 100 µM (inactive)
GI50 (TK-10): > 100 µM (inactive)
GI50 (U-251): > 100 µM (inactive)
GI50 (UACC-62): > 100 µM (inactive)
GI50 (UO-31): > 100 µM (inactive)

O/N=C1/CCCCC1NO (stereo not given)
GI50 (786-0): > 100 µM (inactive)
GI50 (A549): > 100 µM (inactive)
GI50 (ACHN): > 100 µM (inactive)
GI50 (CAKI-1): > 100 µM (inactive)
GI50 (CCRF-CEM): > 100 µM (inactive)
GI50 (COLO 205): > 100 µM (inactive)
GI50 (DU-145): > 100 µM (inactive)
GI50 (EKVX): > 100 µM (inactive)
GI50 (HCC 2998): > 100 µM (inactive)
GI50 (HCT-116): > 100 µM (inactive)
GI50 (HCT-15): > 100 µM
GI50 (HL-60): > 100 µM (inactive)
GI50 (HOP-62): > 100 µM (inactive)
GI50 (HT-29): > 100 µM (inactive)
GI50 (Hs-578T): > 100 µM (inactive)
GI50 (IGROV-1): > 100 µM (inactive)
GI50 (K562): > 100 µM (inactive)
GI50 (KM12): > 100 µM (inactive)
GI50 (LOX IMVI): > 100 µM (inactive)
GI50 (M14): > 100 µM (inactive)
GI50 (MCF7): > 100 µM (inactive)
GI50 (MDA-MB-231): > 100 µM (inactive)
GI50 (MDA-MB-435): > 100 µM (inactive)
GI50 (MDA-N): > 100 µM (inactive)
GI50 (MOLT-4): > 100 µM (inactive)
GI50 (Malme-3M): > 100 µM (inactive)
GI50 (NCI-H226): > 100 µM (inactive)
GI50 (NCI-H23): > 100 µM (inactive)
GI50 (NCI-H460): > 100 µM (inactive)
GI50 (NCI/ADR-RES): > 100 µM (inactive)
GI50 (OVCAR-3): > 100 µM (inactive)
GI50 (OVCAR-4): > 100 µM (inactive)
GI50 (OVCAR-5): > 100 µM (inactive)
GI50 (OVCAR-8): > 100 µM (inactive)
GI50 (PC-3): > 100 µM (inactive)
GI50 (RPMI-8226): > 100 µM (inactive)
GI50 (RXF 393): > 100 µM (inactive)
GI50 (SF-268): > 100 µM (inactive)
GI50 (SF-295): > 100 µM (inactive)
GI50 (SF-539): > 100 µM (inactive)
GI50 (SK-MEL-28): > 100 µM (inactive)
GI50 (SK-MEL-2): > 100 µM (inactive)
GI50 (SK-MEL-5): > 100 µM (inactive)
GI50 (SK-OV-3): > 100 µM (inactive)
GI50 (SN12C): > 100 µM (inactive)
GI50 (SNB-19): > 100 µM (inactive)
GI50 (SNB-75): > 100 µM (inactive)
GI50 (SR): > 100 µM (inactive)
GI50 (SW-620): > 100 µM (inactive)
GI50 (T47D): > 100 µM (inactive)
GI50 (TK-10): > 100 µM (inactive)
GI50 (U-251): > 100 µM (inactive)
GI50 (UACC-257): > 100 µM (inactive)
GI50 (UACC-62): > 100 µM (inactive)
GI50 (UO-31): > 100 µM (inactive)

CC(=O)OC(COc1ccc2c(c1)[n+]([O-])nc(N)[n+]2[O-])CN1CCCCC1 (stereo not given)
GI50 (786-0): 9.98 µM (inactive)
GI50 (A498): 4.36 µM (inactive)
GI50 (A549): 15.3 µM (inactive)
GI50 (ACHN): 6.79 µM (inactive)
GI50 (BT-549): 24.5 µM (inactive)
GI50 (CAKI-1): 17.4 µM (inactive)
GI50 (CCRF-CEM): 6.1 µM (inactive)
GI50 (COLO 205): 4.85 µM (inactive)
GI50 (DU-145): 18.3 µM (inactive)
GI50 (HCC 2998): 8.71 µM (inactive)
GI50 (HCT-116): 10.3 µM (inactive)
GI50 (HCT-15): 7.89 µM
GI50 (HL-60): 5.12 µM (inactive)
GI50 (HOP-92): 17.4 µM (inactive)
GI50 (HT-29): 11.1 µM (inactive)
GI50 (K562): 7.69 µM (inactive)
GI50 (KM12): 13.1 µM (inactive)
GI50 (M14): 16.2 µM (inactive)
GI50 (MCF7): 4.71 µM (inactive)
GI50 (MDA-MB-231): 5.61 µM (inactive)
GI50 (MDA-MB-435): 36 µM (inactive)
GI50 (MOLT-4): 2.49 µM (inactive)
GI50 (Malme-3M): 9.79 µM (inactive)
GI50 (NCI-H226): 15.3 µM (inactive)
GI50 (NCI-H23): 12.4 µM (inactive)
GI50 (NCI-H460): 3.97 µM (inactive)
GI50 (NCI-H522): 11.1 µM (inactive)
GI50 (NCI/ADR-RES): 68.5 µM (inactive)
GI50 (OVCAR-3): 13.6 µM (inactive)
GI50 (OVCAR-4): 30.7 µM (inactive)
GI50 (OVCAR-5): 20.8 µM (inactive)
GI50 (OVCAR-8): 13.8 µM (inactive)
GI50 (PC-3): 1.52 µM (inactive)
GI50 (RPMI-8226): 5.58 µM (inactive)
GI50 (RXF 393): 16.5 µM (inactive)
GI50 (SF-268): > 10 µM (inactive)
GI50 (SF-539): 15.2 µM (inactive)
GI50 (SK-MEL-28): 24.5 µM (inactive)
GI50 (SK-MEL-2): 10.2 µM (inactive)
GI50 (SK-MEL-5): 3.78 µM (inactive)
GI50 (SN12C): 7.62 µM (inactive)
GI50 (SNB-19): 22.3 µM (inactive)
GI50 (SNB-75): 18.2 µM (inactive)
GI50 (SR): 12.2 µM (inactive)
GI50 (SW-620): 17.1 µM (inactive)
GI50 (TK-10): 23.5 µM (inactive)
GI50 (U-251): 13.5 µM (inactive)
GI50 (UACC-257): 12.5 µM (inactive)
GI50 (UO-31): 25.3 µM (inactive)
